In US20180057505A1, “BICYCLIC HETEROARYL COMPOUNDS USEFUL AS INHIBITORS OF THE PAR-2 SIGNALING PATHWAY” (VERTEX PHARMACEUTICALS INCORPORATED, priority 2015, published 2018):

Columns and labels:
Assay type in all cases: cell-based
[1] = system: UTP-stimulated Ca2+ response in HT-29 cells; experiment: Ca FLIPR TETRA assay, ANTAGONIST mode, activator 0.6 μM UTP; conditions: for IC50: HT-29 cells, activator 0.6 μM UTP
How it was run: (§1)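 Ca2+ flux by FLIPR Tetra in HT-29 cells after 30 min r.t. compound preincubation, followed by stimulation with SLIGKV 8 μM, thrombin 1 U/mL, trypsin 3.1 U/mL or UTP 0.6 μM (final). Cells were dye-loaded with calcium 5 beforehand; compound-only responses were also read.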

[2] = biological target: T1, PAR2 (HT-29 cells) (Homo sapiens, UniProt P55085); experiment: Ca FLIPR TETRA assay, ANTAGONIST mode, activator 8 μM SLIGKV; conditions: HT-29 cells, activator 8 μM SLIGKV
T1 construct: host or cells: HT-29
T1 sequence (P55085 26-397): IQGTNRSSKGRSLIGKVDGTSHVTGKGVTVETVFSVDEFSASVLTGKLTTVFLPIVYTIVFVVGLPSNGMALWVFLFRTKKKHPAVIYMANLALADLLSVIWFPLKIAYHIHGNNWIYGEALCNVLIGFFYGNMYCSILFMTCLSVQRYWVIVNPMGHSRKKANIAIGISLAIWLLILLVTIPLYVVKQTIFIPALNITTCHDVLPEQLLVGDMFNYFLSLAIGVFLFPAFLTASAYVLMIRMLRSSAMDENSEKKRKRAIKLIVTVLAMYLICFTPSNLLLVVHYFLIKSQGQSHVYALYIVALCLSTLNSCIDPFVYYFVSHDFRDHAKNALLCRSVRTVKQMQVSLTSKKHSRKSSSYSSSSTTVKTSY
How it was run: as §1

[3] = biological target: T1, PAR2 (HT-29 cells); experiment: Ca FLIPR TETRA assay, ANTAGONIST mode, activator 3.1 U/mL trypsin; conditions: for IC50: HT-29 cells, activator 3.1 U/mL trypsin; for Trypsin, % @ 50: @ 50 (μM)
How it was run: as §1

[4] = system: Thrombin-stimulated Ca2+ response in HT-29 cells; experiment: Ca FLIPR TETRA assay, ANTAGONIST mode, activator 1 U/mL Thrombin; conditions: for IC50: HT-29 cells, activator 1 U/mL Thrombin
How it was run: as §1

[5] = maximal antagonist concentration per Method (A: 0.1, 1 or 2 μM; B: 50 μM)
[6] = Method A: maximal concentration of antagonist 0.1, 1 or 2 μM

SMILES	IC50 ([1]; Homo sapiens) [µM]	IC50 [2, 5] [µM]	IC50 [3, 5] [µM]	IC50 ([4]; Homo sapiens) [µM]	IC50 [2, 6] [µM]	IC50 [3, 6] [µM]	IC50 [1] [µM]	IC50 [4] [µM]	Trypsin, % @ 50 [3] [% @ 50]	Thrombin, % @ 50 ([4]; @ 50 (μM)) [% @ 50]	inhibition at 50 µM ([1]; Homo sapiens, HT-29, @ 50 (μM)) [%]
Cc1ccc(N2CCN(C(=O)c3cc4nc(C5CCC(C)(C)CC5)cc(C(C)(C)C)c4o3)C(C)(C)C2)nc1-c1nnn[nH]1 [Example I-533]	> 2	–	–	> 2	0.0007	0.0017	–	–	–	–	–
CC(C)c1cc(-c2ccc(F)cc2)nc2cc(C(=O)N3CCN(C(=O)OC(C)(C)C)C[C@@H]3C)oc12 [Example I-79]	> 50	1.7	–	–	–	–	–	–	60	26	–
CC1(C)CCC(c2cc(C(C)(C)C)c3oc(C(=O)N4CCN(C(=O)C5CCC(C(=O)O)O5)CC4(C)C)cc3n2)CC1 (stereo not drawn) [Example I-254]	> 2	0.0085	0.02	> 2	–	–	–	–	–	–	–
CC(C)(C)c1cc(C2CCC(Cl)(Cl)CC2)nc2cc(C(=O)N3CCN(C(=O)[C@H]4CC[C@@](C)(C(=O)O)CC4)CC3(C)C)oc12 [Example I-303]	1.8	–	–	1.3	0.0004	0.0006	–	–	–	–	–
Cc1cccc(C2CCN(C(=O)c3cc4nc(-c5ccc(Cl)cc5)cc(C(C)(C)C)c4o3)C(C)(C)C2)n1 (stereo not drawn) [Example I-383]	–	–	–	–	0.019	0.012	> 2	> 2	–	–	–
Cc1cccnc1N1CCN(C(=O)c2cc3nc(-c4ccc(Cl)cc4)cc(C(C)(C)C)c3o2)C(C)(C)C1 [Example I-394]	> 2	–	–	> 2	0.058	0.055	–	–	–	–	–
CC(C)(C)c1cc(-c2ccc(Cl)c(F)c2)nc2cc(C(=O)N3CCN(c4cn[nH]c4)CC3(C)C)oc12 [Example I-259]	> 2	0.008	0.0079	> 2	–	–	–	–	–	–	–
CC1(C)CCC(c2cc(C(C)(C)C)c3oc(C(=O)N4CCC(c5ncc(C(=O)O)cn5)CC4(C)C)cc3n2)CC1 (stereo not drawn) [Example I-427]	–	–	–	–	0.0005	0.0008	0.52	0.42	–	–	–
Cc1n[nH]c(C(=O)N2CCN(C(=O)c3cc4nc(C5CCC(C)(C)CC5)cc(C(C)(C)C)c4o3)C(C)(C)C2)n1 [Example I-227]	> 2	0.0008	0.0012	> 2	–	–	–	–	–	–	–
CC1(C)CCC(c2cc(C(C)(C)C)c3oc(C(=O)N4CCN(c5nc(C(=O)O)co5)CC4(C)C)cc3n2)CC1 [Example I-450]	> 1.01	–	–	> 1.01	0.0004	0.0008	–	–	–	–	–
CC(C)(C)c1cc(-c2ccc(Cl)cc2)nc2cc(C(=O)N3CCN(C(=O)[C@H]4CCS(=O)(=O)N4)CC3(C)C)oc12 [Example I-475]	> 2	–	–	> 2	0.026	0.034	–	–	–	–	–
CC(C)(C)c1cc(-c2ccc(Cl)cc2)nc2cc(C(=O)N3CCN(C(=O)[C@@H]4CC[C@H](C(=O)O)C4)CC3(C)C)oc12 [Example I-536]	> 2	–	–	> 2	0.0023	0.0022	–	–	–	–	–
CC(C)(C)c1cc(-c2ccc(Cl)c(F)c2)nc2cc(C(=O)N3CCN(c4ccc(-c5nnn[nH]5)cn4)CC3(C)C)oc12 [Example I-529]	> 2	–	–	> 2	0.001	0.0012	–	–	–	–	–
Cc1nc(C(=O)O)cnc1C1CCN(C(=O)c2cc3nc(C4CCC(C)(C)CC4)cc(C(C)(C)C)c3o2)C(C)(C)C1 (stereo not drawn) [Example I-384]	–	–	–	–	0.0025	0.0022	> 2	> 2	–	–	–
CNS(=O)(=O)CC(=O)N1CCN(C(=O)c2cc3nc(C4CCC(F)(F)CC4)cc(C(C)(C)C)c3o2)C(C)(C)C1=O [Example I-219]	–	0.039	0.05	–	–	–	> 2	> 2	–	–	–

Continued, in another order:

IC50 ([1]; Homo sapiens) [µM]	IC50 [2, 5] [µM]	IC50 [3, 5] [µM]	IC50 ([4]; Homo sapiens) [µM]	IC50 [2, 6] [µM]	IC50 [3, 6] [µM]	IC50 [1] [µM]	IC50 [4] [µM]	Trypsin, % @ 50 [3] [% @ 50]	SMILES	Thrombin, % @ 50 ([4]; @ 50 (μM)) [% @ 50]	inhibition at 50 µM ([1]; Homo sapiens, HT-29, @ 50 (μM)) [%]
> 33	0.0028	0.0046	29	–	–	–	–	–	CC1(c2cc(-c3ccc(F)cc3)nc3cc(C(=O)N4CCN(C(=O)C5(C(F)(F)F)CC5)CC4(C)C)oc23)CC1 [Example I-55]	–	–
11	1	1.1	13	–	–	–	–	–	CC(C)c1cc(-c2ccc(F)cc2)nc2cc(C(=O)N3CCN(C(=O)C4(O)CCC4)[C@@H](C)C3)oc12 [Example I-89]	–	–
> 2	–	–	> 2	0.014	0.037	–	–	–	CC(C)(C)c1cc(-c2ccc(F)cc2)nc2cc(C(=O)N3CCN(C(C)(C)C)C(=O)C3(C)C)oc12 [Example I-308]	–	–
–	0.006	0.004	–	–	–	> 1	> 1	–	CC1(O)CC(C(=O)C2CCN(C(=O)c3cc4nc(-c5ccc(F)cc5)cc(C5(C#N)CC(F)(F)C5)c4o3)C(C)(C)C2)C1 (stereo not drawn) [Example I-204]	–	–
> 1	0.009	0.022	> 1	–	–	–	–	–	CC(C)(C)c1cc(-c2ccc(F)cc2)nc2cc(C(=O)N3CCN(C(=O)CCC(=O)O)CC3(C)C)oc12 [Example I-194]	–	–
> 2	–	–	> 2	0.012	0.0141	–	–	–	Cn1cc(N2CCN(C(=O)c3cc4nc(-c5ccc(Cl)c(F)c5)cc(C(C)(C)C)c4o3)C(C)(C)C2=O)nn1 [Example I-356]	–	–
> 2	0.0035	0.005	> 2	–	–	–	–	–	CN1CCN(C(=O)c2cc3nc(-c4ccc(Cl)cc4)cc(C(C)(C)C)c3o2)C(C)(C)C1=O [Example I-236]	–	–
> 2	–	–	> 2	0.0057	0.012	–	–	–	CC1(C)CCC(c2cc(C(C)(C)C)c3oc(C(=O)N4CCN(c5cn[nH]c5)C(=O)C4(C)C)cc3n2)CC1 [Example I-315]	–	–
> 2	–	–	> 2	0.01	0.0088	–	–	–	CC(C)(C)c1cc(-c2ccc(Cl)c(F)c2)nc2cc(C(=O)N3CCN(c4ccn[nH]4)C(=O)C3(C)C)oc12 [Example I-406]	–	–
–	0.0024	0.0035	1.4	–	–	–	–	–	CC(C)c1cc(-c2ccc(F)cc2)nc2cc(C(=O)N3CCN(C(=O)c4ccccc4)CC3(C)C)oc12 [Example I-11]	–	59
> 32	0.032	0.052	37	–	–	–	–	–	CCC(O)(CC)C(=O)N1CCN(C(=O)c2cc3nc(-c4ccc(F)cc4)cc(C(C)C)c3o2)C(C)(C)C1 [Example I-69]	–	–
> 1	0.0029	0.004	> 1	–	–	–	–	–	Cc1ccc(-c2cc(C(C)(C)C)c3oc(C(=O)N4CCN(C(=O)[C@H]5C[C@@](C)(O)C5)CC4(C)C)cc3n2)cc1 [Example I-164]	–	–
> 1	0.017	0.028	> 1	–	–	–	–	–	CC(C)(C)c1cc(-c2ccc(F)cc2)nc2cc(C(=O)N3CCN(C(=O)C4CC(C(=O)O)C4)CC3(C)C)oc12 (stereo not drawn) [Example I-189]	–	–
14	7.8	7.7	15	–	–	–	–	–	CC(C)c1cc(-c2ccc(F)cc2)nc2cc(C(=O)N3CCN(C(=O)C(C)(C)O)C[C@@H]3C)oc12 [Example I-106]	–	–
> 50	0.029	0.078	> 50	–	–	–	–	–	CC[C@H](C(=O)N1CCN(C(=O)c2cc3nc(-c4ccc(F)cc4)cc(C4(C)CC4)c3o2)C(C)(C)C1)c1ccccc1 [Example I-47]	–	–
> 1	0.02	0.034	> 1	–	–	–	–	–	CC(C)c1cc(-c2ccc(F)cc2)nc2cc(C(=O)N3CCN(S(=O)(=O)c4cn[nH]c4)CC3(C)C)oc12 [Example I-147]	–	–
17	0.16	0.34	17	–	–	–	–	–	CC(C)c1cc(-c2ccc(F)cc2)nc2cc(C(=O)N3CCN(C(=O)C4CCCCO4)[C@@H](C)C3)oc12 (stereo partly drawn) [Example I-88]	–	–
16	0.023	0.027	15	–	–	–	–	–	CC(C)c1cc(-c2ccc(F)cc2)nc2cc(C(=O)N3CCN(C(=O)C4CCCO4)CC3(C)C)oc12 (stereo not drawn) [Example I-10]	–	–
> 2	–	–	> 2	0.0083	0.01	–	–	–	CC(C)(C)c1cc(-c2ccc(Cl)c(F)c2)nc2cc(C(=O)N3CCN(c4cccnn4)C(=O)C3(C)C)oc12 [Example I-357]	–	–
> 50	0.74	–	> 50	–	–	–	–	49	CC1(c2nc(-c3ccc(F)cc3)nc3cc(C(=O)N4CCNC(=O)C4(C)C)oc23)CC1 [Example I-127]	–	–
24	7.9	8.5	29	–	–	–	–	–	CC(C)c1cc(-c2ccc(F)cc2)nc2cc(C(=O)N3CCN(C(=O)[C@@H](C)O)C[C@@H]3C)oc12 [Example I-103]	–	–
